Measured values: patent US5428051A, “Methods of combating pneumocystis carinii pneumonia and compounds useful therefor” (priority 1992, dated 1995)
Where two headings read alike, the source gives them in different places.

Tests used:
[1] = tested on: Pneumocystis carinii; assay: Treatment of Pneumocystis carinii pneumonia in rats: histologic scoring of lung cysts (GMS stain); format: in vivo, Sprague-Dawley rats; design: key to Mean Histologic Score: lung cyst score: 0.5 = <10 cysts, 4 = >50% of lung tissue involved; conditions: daily i.v., 14 days; for No. of animals with histologic score 0.5: 0.5 = less than 10 cysts per two sections; for No. of animals with histologic score 1: 1 = <10% of lung tissue involved; for No. of animals with histologic score 2: 2 = 10 to 25% of lung tissue involved; for No. of animals with histologic score 3: 3 = 26 to 50% of lung tissue involved; for No. of animals with histologic score 4: 4 = >50% of lung tissue involved; for Mean Histologic Score: score scale 0.5-4
Method: (§1) Induction and Treatment of Pneumocystis carinii in Sprague-Dawley Rats
(§2) Male Sprague-Dawley rats, barrier raised, non-certified virus free, weighing 150-200 g were obtained from Hilltop Laboratories and housed individually. Animals were begun on a low (8%) protein diet (ICN Biomedicals, Cincinnati, Ohio) and drinking water containing tetracycline (0.5 mg/ml) and dexamethasone (1.0 μg/ml). This treatment was given for the next 8 weeks, monitoring fluid intake daily and weighing animals weekly. Dilutions of the drinking solution were made when animals consumed too much fluid so as to prevent cortisone poisoning. At the beginning of the sixth week animals were divided into groups of eight or more animals each and the test compounds were administered daily by i.v. injection into the tail vein at the indicated dose for the next 14 days or orally by gavage for the next 14 days.
All animals were sacrificed at the end of the eighth week by chloroform inhalation and the right lung was inflated in situ with 10% formalin and fixed for histologic examination. The fixed lung tissue was sectioned longitudinally and stained with Grocott's methenamine silver (GMS) stain which selectively stains the walls of th P. carinii cysts. Stained sections were coded and each section was scored by 2 examiners using a blinded protocol. Sections were read and scored according to modification of known procedures (P. Walzer et al., Antimicrob. Agents. Chemother. 32: 896-905 (1988)) as follows: 0.5=less than 10 cysts counted per two fully examinec sections; 1=scattered cysts with <10% of lung tissue involved; 2=scattered cysts with limited intense focal involvement and 10 to 25% of lung tissue involved; 3=scattered cysts with numerous intense areas of focal involvement and 26 to 50% of lung tissue involved; 4=cysts found throughout the tissue with numerous very intense focal areas of involvement having >50% of lung tissue involved.
The Chi square goodness of fit was used to calculate the p values of each test group when compared to the saline-treated and pentamidine-treated groups. The statistical analysis was carried out using the StatView 512+ software package (Brainpower, Inc., Calabasas, Calif.) on a Macintosh II computer.

[2] = tested on: Pneumocystis carinii; assay: Treatment of Pneumocystis carinii pneumonia in rats: cyst count in lung homogenate (cresyl violet); format: in vivo, Sprague-Dawley rats; conditions: for response vs control in vivo at 5 mg/kg / response vs control in vivo at 10 mg/kg: Pneumocystis carinii, iv, 336 h, read-out: Cysts/g Lung (% of Control)
Method: as §1, §2
The left lung was weighed, ground through a #60 wire mesh, and suspended 1:10 (w/v) in Hank's balanced salts solution without cations (HBSS-) and 10 mM β-mercaptoethanol (β-Me). Slides were prepared by spotting 5 μl of lung homogenate diluted 1:10 in HBSS- with β-Me and allowed to air dry. The slides were stained with cresyl violet and the cysts were counted using a blinded protocol. The number of cysts/g of original lung tissue was calculated and the groups were reported as the percent of saline-treated controls.

[3] = Toxicity of the test compounds in rats (graded by local, clinical and histologic criteria); format: in vivo, Sprague-Dawley rats; conditions: for Toxicity: 10.0 mg/kg, daily i.v., 14 days
Method: as §2

[4] = tested on: Giardia lamblia; assay: In vitro activity against Giardia lamblia ([3H]-thymidine incorporation); format: cell-based, strain WB (ATCC #30957); conditions: 42 hours, 37° C., read-out: IC50 ± S.D. In Vitro Antigiaridal Activity
Method: In vitro Biological Activity of Bis-Benzimidazoles Against Giardia lamblia
In brief, Giardia lamblia, strain WB (ATCC #30957) was grown to early log phase in filter sterilized Keister's medium with 10% heat-inactivated fetal bovine serum and 50 μg/ml ampicillin and 50 μg/ml gentamicin sulfate. Assay medium was modified Keister's medium plus 5% heat-inactivated fetal bovine serum. The assay procedure was carried out in accordance with the following steps:
(1) (0 hours) Serial dilutions of diamidines suspended in assay medium were prepared in duplicate rows of a 96-well microtiter plate and 2.5×10^4 trophozoites were added to each well. Plates were placed in an anaerobic chamber, gassed with nitrogen, and incubated at 37° C.
(2) (24 hours) Added [methyl-^3 H]-thmidine (1-10 Ci/mmol) to yield 1.5-2 μCi/well.
(3) (42 hours) Harvested cells with multimash-type cell harvester onto glass microfiber paper. Washed and dried filters were counted using a scintillation counter to determine the incorporation of [^3 H]-thymidine.
(4) Data on uptake of [^3 H]-thymidine were fitted to a logistic-logarithmic concentration response function by a non-linear regression method and drug concentrations required to inhibit 50% incorporation of [^3 H]-thymidine were determined.

[5] = tested on: Pneumocystis carinii; assay: Anti-PCP activity in rats; format: in vivo, Sprague-Dawley rats
[6] = patients, intramuscular and intravenous routes; cited from earlier work
[7] = daily i.v., 14 days, vs. saline-treated controls
[8] = 10.0 mg/kg, daily i.v., 14 days, vs. saline-treated controls

Compound | No. of animals with histologic score 0.5 ([1]; 10.0 mg/kg) [animals] | No. of animals with histologic score 1 ([1]; 10.0 mg/kg) [animals] | No. of animals with histologic score 2 ([1]; 10.0 mg/kg) [animals] | No. of animals with histologic score 3 ([1]; 10.0 mg/kg) [animals] | No. of animals with histologic score 4 ([1]; 10.0 mg/kg) [animals] | Mean Histologic Score ([1]; 10.0 mg/kg) | IC50 ([4]; Giardia duodenalis) [µM] | response vs control in vivo at 10 mg/kg [2, 8] [%] | further results
N=C(N)c1ccc2nc(/C=C/c3nc4ccc(C(=N)N)cc4[nH]3)[nH]c2c1 [Compound 10, trans-1,2-bis[5-amidino-2-benzimidazolyl]ethene] |  |  |  |  |  |  |  |  | No. of animals with histologic score 0.5 ([1]; 5.0 mg/kg): 1 animals; No. of animals with histologic score 1 ([1]; 5.0 mg/kg): 5 animals; No. of animals with histologic score 2 ([1]; 5.0 mg/kg): 5 animals; No. of animals with histologic score 3 ([1]; 5.0 mg/kg): 1 animals; No. of animals with histologic score 4 ([1]; 5.0 mg/kg): 0 animals; Mean Histologic Score ([1]; 5.0 mg/kg): 1.5; response vs control in vivo at 5 mg/kg [2, 7]: 2.14%
N=C(N)c1ccc2nc(Cc3nc4ccc(C(=N)N)cc4[nH]3)[nH]c2c1 [Compound 1, bis[5-amidino-2-benzimidazolyl]methane] | 7 | 1 | 0 | 0 | 0 | 0.6 | 307 ± 28.3 |  | Toxicity [3]: 0
N=C(N)c1ccc2nc(CCCCCCCCc3nc4ccc(C(=N)N)cc4[nH]3)[nH]c2c1 [Compound 9, 1,8-bis[5-amidino-2-benzimidazolyl]octane] |  |  |  |  |  |  | 0.04 ± 0.01 |  | No. of animals with histologic score 0.5 ([1]; 5.0 mg/kg): 1 animals; No. of animals with histologic score 1 ([1]; 5.0 mg/kg): 0 animals; No. of animals with histologic score 2 ([1]; 5.0 mg/kg): 8 animals; No. of animals with histologic score 3 ([1]; 5.0 mg/kg): 3 animals; No. of animals with histologic score 4 ([1]; 5.0 mg/kg): 0 animals; Mean Histologic Score ([1]; 5.0 mg/kg): 2.1; response vs control in vivo at 5 mg/kg [2, 7]: 31.8%
N=C(N)c1ccc2nc(CCCc3nc4ccc(C(=N)N)cc4[nH]3)[nH]c2c1 [Compound 5, 1,3-bis[5-amidino-2-benzimidazolyl]propane] | 0 | 1 | 1 | 7 | 3 | 3.0 | 32.5 ± 6.4 | 64.6 | 
c1cc2[nH]c(CCCc3nc4cc(C5=NCCN5)ccc4[nH]3)nc2cc1C1=NCCN1 [Compound 6] | 1 | 7 | 3 | 1 | 0 | 1.4 | 49.5 ± 7.8 | 9.23 | 
c1cc2[nH]c(CCCCc3nc4cc(C5=NCCN5)ccc4[nH]3)nc2cc1C1=NCCN1 [Compound 8] | 12 | 0 | 0 | 0 | 0 | 0.5 | 14.5 ± 3.5 | 0.07 | toxicity relative to the parent compound ([3]; vs. pentamidine (parent compound)): significantly less toxic than the parent compound; activity against PCP when administered orally ([5]; oral, daily dose of 25 mg/kg): exhibited some activity against PCP; potency as an anti-PCP agent relative to pentamidine ([5]; vs. pentamidine): over four times more potent
N=C(N)c1ccc(OCCCCCOc2ccc(C(=N)N)cc2)cc1 [Pentamidine, reference compound] | 12 | 38 | 17 | 4 | 0 |  |  |  | response vs control in vivo at 10 mg/kg [2]: 3.13%
N=C(N)c1ccc2nc(CCc3nc4ccc(C(=N)N)cc4[nH]3)[nH]c2c1 [Compound 3, 1,2-bis[5-amidino-2-benzimidazolyl]ethane] | 7 | 3 | 0 | 0 | 0 | 0.7 | 0.33 ± 0.15 | 2.05 | 
1,4-bis[5-amidino-2-benzimidazolyl]propane [Compound 7] | 10 | 2 | 0 | 0 | 0 | 0.6 |  |  | Cysts/g Lung (% of Control) [2, 8]: 1.67 % of Control; Toxicity [3]: 0; IC50 [4]: 8.15 ± 6.9 µM
N=C(N)c1ccc(OCCCCCOc2ccc(C(=N)N)cc2)cc1 [pentamidine isethionate] |  |  |  |  |  |  |  |  | side effects / fatalities [6]: Some fatalities have been attributed to severe hypotension, hypoglycemia, and cardiac arrhythmias
